Assay results as given in PMC5063977 (The Journal of Biological Chemistry, 2016).

Columns and labels:
[1] = biological target: T1, RAMP2-CLR (AM1 receptor) (Homo sapiens, UniProt O60895+Q16602); test: cAMP accumulation, HEK-293 cells, RAMP2 + CLR; format: cell-based; settings: mean ± S.E.
T1 construct: FLAG; expressed in transfected cells; host or cells: HEK-293 or HEK-293S cells, transient transfection, 1:1 RAMP:CLR
Method: HEK-293 cells were transfected with FuGENE 6 (Roche Applied Science) in accordance with the manufacturer's instructions using a 1:3 (w:v) DNA:FuGENE ratio and a 1:1 ratio of RAMP to CLR. […] The transfected cell lines were grown for 24–48 h prior to assaying.
The transfected HEK-293 cells were washed in PBS, resuspended in stimulation buffer (PBS containing 0.1% BSA and 0.5 mM IBMX), and seeded at 2000 cells/well in 384-well white Optiplates. Ligands were added in the range of 1 pM to 1 mM, and cAMP accumulation was measured after 30 min of stimulation using a LANCE® cAMP detection kit (PerkinElmer Life Sciences). […] Plates were read using a Mithras LB 940 multimode microplate reader (Berthold Technologies). […] Values were converted to concentration using a cAMP standard curve performed in parallel.
Data analysis for cAMP assays was performed in GraphPad Prism 6.0f (San Diego, CA). Data were fitted to obtain concentration-response curves using either the three-parameter logistic equation (for pEC50 values) or the operational model for partial agonism ([34]) to obtain values of efficacy (log τ) and the equilibrium dissociation constant (log Ka). These values were then used to quantify signaling bias as change in log (τ/Ka) relative to the natural cognate ligand for the respective receptor ([41]). […] Statistical differences were analyzed using one-way ANOVA or Student's t test as appropriate with post hoc Bonferroni's or Dunnett's multiple comparisons, and p < 0.05 was considered significant. […] For RT-PCR, normalization to the internal standard GAPDH was performed to reduce variance and enable a comparison between different cell lines. To quantitate the ligand-dependent response in the yeast system, a strain lacking GPA1 (MMY11), grown in rich medium, was used as a standard ([72]). As GPA1 is not present in this strain, the Gβγ subunits are unregulated and free to signal, allowing us to determine the maximal response of our system. […] For the mammalian cell-based assays, data analysis was carried out as for the yeast curves. […]

[2] = biological target: T2, RAMP3-CLR (AM2 receptor) (Homo sapiens, UniProt O60896+Q16602); test: cAMP accumulation, HEK-293S cells, RAMP3 + CLR; format: cell-based; parameters: dose or concentration left out as unconfirmed; settings: HEK293S, mean ± S.E., n = 5
T2 construct: FLAG; expressed in transfected cells; host or cells: HEK-293 or HEK-293S cells, transient transfection, 1:1 RAMP:CLR
Method: HEK-293 cells, provided by Dr. Jügen Müller (University of Aston), were cultured in DMEM supplemented with 10% heat-inactivated FBS and kept at 37 °C in a humidified 95% air, 5% CO2 incubator. HEK-293S cells (a gift from AstraZeneca) were cultured in DMEM supplemented with 8% heat-inactivated FBS and kept at 37 °C in a humidified 95% air, 5% CO2 incubator. HEK-293 cells were transfected with FuGENE 6 (Roche Applied Science) in accordance with the manufacturer's instructions using a 1:3 (w:v) DNA:FuGENE ratio and a 1:1 ratio of RAMP to CLR. HEK-293S cells were seeded into 96-well poly-D-lysine-coated plates at a density of 15,000 cells/well (determined using a Countess^TM cell counter, Invitrogen) 1 day prior to transfection. HEK-293S cells were transiently transfected as described previously ([38]) using a 1:1 ratio of RAMP to CLR. The transfected cell lines were grown for 24–48 h prior to assaying.
The transfected HEK-293 cells were washed in PBS, resuspended in stimulation buffer (PBS containing 0.1% BSA and 0.5 mM IBMX), and seeded at 2000 cells/well in 384-well white Optiplates. Ligands were added in the range of 1 pM to 1 mM, and cAMP accumulation was measured after 30 min of stimulation using a LANCE® cAMP detection kit (PerkinElmer Life Sciences). […] Plates were read using a Mithras LB 940 multimode microplate reader (Berthold Technologies). […]

T1 sequence (Q16602 23-461): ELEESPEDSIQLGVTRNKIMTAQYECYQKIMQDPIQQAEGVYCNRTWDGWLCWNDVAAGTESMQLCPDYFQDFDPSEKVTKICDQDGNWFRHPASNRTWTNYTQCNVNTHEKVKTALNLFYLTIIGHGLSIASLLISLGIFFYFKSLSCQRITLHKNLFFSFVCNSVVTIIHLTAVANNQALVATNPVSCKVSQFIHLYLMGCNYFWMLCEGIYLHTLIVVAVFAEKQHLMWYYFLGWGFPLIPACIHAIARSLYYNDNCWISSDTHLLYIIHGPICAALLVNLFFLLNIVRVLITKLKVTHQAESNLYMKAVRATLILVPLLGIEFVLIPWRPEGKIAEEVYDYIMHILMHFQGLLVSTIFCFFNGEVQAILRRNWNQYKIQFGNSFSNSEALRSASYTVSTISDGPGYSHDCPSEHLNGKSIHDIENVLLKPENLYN
T1 sequence (O60895 43-175): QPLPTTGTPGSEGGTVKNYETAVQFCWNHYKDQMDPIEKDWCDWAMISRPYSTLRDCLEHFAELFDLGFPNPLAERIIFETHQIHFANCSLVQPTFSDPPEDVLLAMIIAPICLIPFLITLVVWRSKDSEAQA
T2 sequence (Q16602 23-461): as the sequence (Q16602 23-461) above
T2 sequence (O60896 24-148): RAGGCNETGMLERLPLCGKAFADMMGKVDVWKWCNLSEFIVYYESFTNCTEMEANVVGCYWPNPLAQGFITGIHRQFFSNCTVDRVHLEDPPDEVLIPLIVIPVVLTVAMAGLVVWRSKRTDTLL

Emax ([1]; HEK293, PTX treated (200 ng/ml, 16 h), percentage of maximal cAMP with 100 μM forskolin in presence of PTX, n = 6 (Table 3)) [%]	Emax ([1]; HEK293, percentage of maximal cAMP with 100 μM forskolin, HEK-293, 30 min, n = 8 (Table 2)) [%]	Emax ([1]; HEK293, untreated, percentage of maximal cAMP with 100 μM forskolin in presence of PTX, n = 9 (Table 3)) [%]	Emax [2] [%]	SMILES
56 ± 2.2	34.1 ± 4	36.6 ± 3.5	–	CSCC[C@H](NC(=O)[C@H](CC(C)C)NC(=O)[C@H](CCC(N)=O)NC(=O)[C@H](Cc1c[nH]c2ccccc12)NC(=O)[C@H](CC(C)C)NC(=O)[C@H](CCCNC(=N)N)NC(=O)[C@H](Cc1c[nH]cn1)NC(=O)[C@H](CO)NC(=O)[C@H](CC(C)C)NC(=O)[C@H](CC(N)=O)NC(=O)[C@H](CCC(N)=O)NC(=O)[C@@H](NC(=O)[C@H](CCC(N)=O)NC(=O)[C@@H]1CSSC[C@H](NC(=O)CNC(=O)[C@@H](NC(=O)[C@H](CCCNC(=N)N)NC(=O)[C@H](CC(C)C)NC(=O)[C@H](CC(C)C)NC(=O)[C@H](CCC(N)=O)NC(=O)[C@H](C)NC(=O)[C@H](CCC(N)=O)NC(=O)[C@@H](N)[C@@H](C)O)C(C)C)C(=O)N[C@@H](C(C)C)C(=O)N[C@@H](CC(C)C)C(=O)NCC(=O)N[C@@H]([C@@H](C)O)C(=O)N1)C(C)C)C(=O)NCC(=O)N1CCC[C@H]1C(=O)N[C@@H](C)C(=O)NCC(=O)N[C@@H](CCCNC(=N)N)C(=O)N[C@@H](CCC(N)=O)C(=O)N[C@@H](CC(=O)O)C(=O)N[C@@H](CO)C(=O)N[C@@H](C)C(=O)N1CCC[C@H]1C(=O)N[C@H](C(=O)N[C@@H](CC(=O)O)C(=O)N1CCC[C@H]1C(=O)N[C@@H](CO)C(=O)N[C@@H](CO)C(=O)N1CCC[C@H]1C(=O)N[C@@H](Cc1c[nH]cn1)C(=O)N[C@@H](CO)C(=O)N[C@@H](Cc1ccc(O)cc1)C(N)=O)C(C)C [AM2, adrenomedullin 2]
–	–	–	39.1 ± 1.2	CC[C@H](C)[C@H](NC(=O)[C@H](CCC(N)=O)NC(=O)[C@H](Cc1c[nH]cn1)NC(=O)[C@H](C)NC(=O)[C@H](CC(C)C)NC(=O)[C@H](CCCCN)NC(=O)[C@H](CCC(N)=O)NC(=O)[C@@H](NC(=O)[C@@H](NC(=O)[C@@H]1CSSC[C@H](NC(=O)CNC(=O)[C@H](Cc2ccccc2)NC(=O)[C@H](CO)NC(=O)[C@H](CCCNC(=N)N)NC(=O)[C@H](CC(C)C)NC(=O)CNC(=O)[C@H](CCC(N)=O)NC(=O)[C@H](Cc2ccccc2)NC(=O)[C@H](CC(N)=O)NC(=O)[C@H](CC(N)=O)NC(=O)[C@H](CCSC)NC(=O)[C@H](CO)NC(=O)[C@H](CCC(N)=O)NC(=O)[C@H](CCCNC(=N)N)NC(=O)[C@@H](N)Cc2ccc(O)cc2)C(=O)N[C@@H](CCCNC(=N)N)C(=O)N[C@@H](Cc2ccccc2)C(=O)NCC(=O)N[C@@H]([C@@H](C)O)C(=O)N1)[C@@H](C)O)C(C)C)C(=O)N[C@@H](Cc1ccc(O)cc1)C(=O)N[C@@H](CCC(N)=O)C(=O)N[C@@H](Cc1ccccc1)C(=O)N[C@H](C(=O)N[C@@H](CC(=O)O)C(=O)N[C@@H](CCCCN)C(=O)N[C@@H](CC(=O)O)C(=O)N[C@@H](CCCCN)C(=O)N[C@@H](CC(=O)O)C(=O)N[C@@H](CC(N)=O)C(=O)N[C@H](C(=O)N[C@@H](C)C(=O)N1CCC[C@H]1C(=O)N[C@@H](CCCNC(=N)N)C(=O)N[C@@H](CO)C(=O)N[C@@H](CCCCN)C(=O)N[C@H](C(=O)N[C@@H](CO)C(=O)N1CCC[C@H]1C(=O)N[C@@H](CCC(N)=O)C(=O)NCC(=O)N[C@@H](Cc1ccc(O)cc1)C(N)=O)[C@@H](C)CC)C(C)C)[C@@H](C)O [AM, adrenomedullin]
